We go through three compounds from US10717733B2, “Haloallylamine indole and azaindole derivative inhibitors of lysyl oxidases and uses thereof” (PHARMAXIS LTD., priority 2016, dated 2020).

What all share (type): biochemical
Assay [1] addresses human recombinant SSAO/VAP-1 (Homo sapiens (Human), UniProt Q16853). The assay can be described thus: Inhibition of human recombinant SSAO/VAP-1 amine oxidase activity. The note with it: 30 min preincubation at 37° C., 600 μM benzylamine. An outline of the steps: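 Purified SSAO/VAP-1 (residues 34-763, expressed in CHO Lec 8 cells; 0.25 μg/mL) preincubated 30 min at 37° C with compound in 0.1 M sodium phosphate pH 7.4. Reaction mix of 600 μM benzylamine, 120 μM Amplex Red and 1.5 U/mL HRP added; fluorescence (ex 565/em 590 nm) read every 2.5 min for 30 min; IC50 from kinetic slopes over 4-11 point curves.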

The target in another assay is Recombinant human MAO-B (Homo sapiens (Human), UniProt P27338). The assay can be described thus: Inhibition of human recombinant MAO-B. The note with it: benzylamine 100 μM. The essentials:
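Recombinant human MAO-B used as enzyme source (0.06 mg/mL, stated concentration). Run as for the human SSAO/VAP-1 assay, except benzylamine substrate at 100 μM.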

A further assay has as its target Bovine LOX (Bos taurus (Bovine), UniProt P33072). Description: LOX inhibition, peroxidase-coupled Amplex Red amine oxidase assay. The note with it: 30 min preincubation at 37° C., putrescine substrate. The essentials: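 Bovine LOX in 1.2 M urea, 50 mM sodium borate pH 8.2 with 1 μM mofegiline and 0.5 mM pargyline; putrescine at twice KM (e.g. 20 mM for LOX) with Amplex Red/HRP. Fluorescence (ex 565/em 590 nm) read kinetically over 30 min at 37–45 °C; IC50 from slopes.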

Each structure is given as a SMILES string. Where a name gives a salt, the structure may show the parent alone. Bounds are passed on as bounds.

Sequence of human recombinant SSAO/VAP-1 (Q16853 34-763): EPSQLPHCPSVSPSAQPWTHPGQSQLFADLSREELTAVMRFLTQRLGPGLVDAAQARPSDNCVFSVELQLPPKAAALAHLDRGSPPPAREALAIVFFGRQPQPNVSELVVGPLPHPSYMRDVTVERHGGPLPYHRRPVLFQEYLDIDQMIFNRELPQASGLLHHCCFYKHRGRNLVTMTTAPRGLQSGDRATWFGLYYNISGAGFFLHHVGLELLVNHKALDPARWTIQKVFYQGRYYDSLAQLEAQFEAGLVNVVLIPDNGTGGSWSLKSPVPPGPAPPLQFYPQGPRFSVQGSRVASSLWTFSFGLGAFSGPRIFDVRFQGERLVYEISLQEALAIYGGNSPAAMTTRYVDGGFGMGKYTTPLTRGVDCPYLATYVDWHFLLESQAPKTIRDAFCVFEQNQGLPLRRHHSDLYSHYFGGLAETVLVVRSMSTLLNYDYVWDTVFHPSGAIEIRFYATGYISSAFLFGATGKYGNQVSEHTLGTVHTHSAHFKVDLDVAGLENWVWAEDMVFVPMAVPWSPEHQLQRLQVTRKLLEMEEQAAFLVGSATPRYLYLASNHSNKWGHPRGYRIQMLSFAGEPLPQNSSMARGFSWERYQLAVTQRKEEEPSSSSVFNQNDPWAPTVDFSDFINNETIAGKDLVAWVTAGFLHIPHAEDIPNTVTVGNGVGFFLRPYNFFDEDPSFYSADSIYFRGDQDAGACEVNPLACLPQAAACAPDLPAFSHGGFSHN
Sequence of Bovine LOX (P33072 170-418): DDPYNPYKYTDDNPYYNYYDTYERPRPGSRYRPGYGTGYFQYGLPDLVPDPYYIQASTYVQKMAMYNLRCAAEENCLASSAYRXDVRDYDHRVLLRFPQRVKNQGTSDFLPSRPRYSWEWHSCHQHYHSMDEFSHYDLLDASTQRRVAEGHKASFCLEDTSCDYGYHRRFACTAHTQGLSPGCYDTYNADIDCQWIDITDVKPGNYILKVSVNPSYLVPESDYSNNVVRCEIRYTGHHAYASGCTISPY
Sequence of Recombinant human MAO-B (P27338 whole entry): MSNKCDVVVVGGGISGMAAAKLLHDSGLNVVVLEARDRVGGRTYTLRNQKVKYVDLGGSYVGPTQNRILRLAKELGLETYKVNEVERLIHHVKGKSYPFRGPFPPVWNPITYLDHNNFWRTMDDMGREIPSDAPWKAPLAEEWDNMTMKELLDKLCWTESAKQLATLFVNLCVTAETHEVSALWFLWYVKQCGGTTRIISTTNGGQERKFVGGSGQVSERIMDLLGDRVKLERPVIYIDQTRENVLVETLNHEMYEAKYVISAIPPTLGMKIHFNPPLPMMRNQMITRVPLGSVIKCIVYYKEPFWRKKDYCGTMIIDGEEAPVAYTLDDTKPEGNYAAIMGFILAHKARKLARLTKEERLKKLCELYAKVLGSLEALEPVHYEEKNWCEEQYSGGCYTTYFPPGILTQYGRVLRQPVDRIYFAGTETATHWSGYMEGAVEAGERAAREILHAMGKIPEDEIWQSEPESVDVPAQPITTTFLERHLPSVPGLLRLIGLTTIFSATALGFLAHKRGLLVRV

As to `CCOC(=O)c1ccc2c(c1)c(-c1cccc(S(=O)(=O)N(C)C)c1)c(C)n2C/C(F)=C/CN` [Compound 12, (Z)-ethyl 1-(4-amino-2-fluorobut-2-en-1-yl)-3-(3-(N,N-dimethylsulfamoyl)phenyl)-2-methyl-1H-indole-5-carboxylate], the values for the concentration for half-maximal inhibition (IC50) (in assay [1]; on Recombinant human MAO-B; against Bovine LOX) were greater than 3000 nM, greater than 3000 nM and greater than 300 nM, respectively.

In the case of `Cc1c(-c2cccc(S(=O)(=O)N(C)C)c2)c2ncccc2n1C/C(F)=C/CN` [Compound 25, (Z)-3-(1-(4-amino-2-fluorobut-2-en-1-yl)-2-methyl-1H-pyrrolo[3,2-b]pyridin-3-yl)-N,N-dimethylbenzenesulfonamide Dihydrochloride], the results for the IC50 (in assay [1]; on Recombinant human MAO-B; against Bovine LOX) were greater than 3000 nM, greater than 3000 nM and greater than 300 nM, respectively.

For the compound `Cc1ccc2c(n1)c(-c1cccc(S(C)(=O)=O)c1)c(C)n2C/C(F)=C/CN` [Compound 112, (Z)-4-(2,5-dimethyl-3-(3-(methylsulfonyl)phenyl)-1H-pyrrolo[3,2-b]pyridin-1-yl)-3-fluorobut-2-en-1-amine Dihydrochloride], the IC50 is greater than 3000 nM in assay [1], greater than 3000 nM on Recombinant human MAO-B and greater than 300 nM against Bovine LOX.

In general, IC50 refers to the concentration that gives 50% inhibition.
